Experimental data as given in ChEMBL document CHEMBL1177732, “Triterpene saponins from Clematis chinensis and their potential anti-inflammatory activity” (J Nat Prod, 2010).

Tests used:
[1] = molecular target: Prostaglandin G/H synthase 1 (Homo sapiens, UniProt P23219); assay: Inhibition of COX1 by microplate reader
[2] = molecular target: T1, Prostaglandin G/H synthase 2 (Homo sapiens, UniProt P35354); assay: Inhibition of COX2 by microplate reader
T1 sequence (P35354 whole entry): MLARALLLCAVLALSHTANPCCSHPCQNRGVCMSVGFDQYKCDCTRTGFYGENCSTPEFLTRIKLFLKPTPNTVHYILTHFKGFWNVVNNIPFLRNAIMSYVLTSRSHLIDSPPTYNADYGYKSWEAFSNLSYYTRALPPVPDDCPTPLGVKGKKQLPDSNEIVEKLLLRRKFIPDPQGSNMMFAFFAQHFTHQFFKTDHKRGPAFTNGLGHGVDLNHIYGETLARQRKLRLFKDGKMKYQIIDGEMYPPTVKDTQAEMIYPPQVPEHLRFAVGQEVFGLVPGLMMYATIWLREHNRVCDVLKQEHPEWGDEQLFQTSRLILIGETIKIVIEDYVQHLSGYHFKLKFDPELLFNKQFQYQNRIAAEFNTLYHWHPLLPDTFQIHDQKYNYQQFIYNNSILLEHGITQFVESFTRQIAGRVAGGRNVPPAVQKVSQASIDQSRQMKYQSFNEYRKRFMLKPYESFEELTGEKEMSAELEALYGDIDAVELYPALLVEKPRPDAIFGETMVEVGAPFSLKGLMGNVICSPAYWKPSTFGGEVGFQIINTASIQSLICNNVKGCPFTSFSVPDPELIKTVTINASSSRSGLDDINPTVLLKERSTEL

Sequence of Prostaglandin G/H synthase 1 (P23219 whole entry): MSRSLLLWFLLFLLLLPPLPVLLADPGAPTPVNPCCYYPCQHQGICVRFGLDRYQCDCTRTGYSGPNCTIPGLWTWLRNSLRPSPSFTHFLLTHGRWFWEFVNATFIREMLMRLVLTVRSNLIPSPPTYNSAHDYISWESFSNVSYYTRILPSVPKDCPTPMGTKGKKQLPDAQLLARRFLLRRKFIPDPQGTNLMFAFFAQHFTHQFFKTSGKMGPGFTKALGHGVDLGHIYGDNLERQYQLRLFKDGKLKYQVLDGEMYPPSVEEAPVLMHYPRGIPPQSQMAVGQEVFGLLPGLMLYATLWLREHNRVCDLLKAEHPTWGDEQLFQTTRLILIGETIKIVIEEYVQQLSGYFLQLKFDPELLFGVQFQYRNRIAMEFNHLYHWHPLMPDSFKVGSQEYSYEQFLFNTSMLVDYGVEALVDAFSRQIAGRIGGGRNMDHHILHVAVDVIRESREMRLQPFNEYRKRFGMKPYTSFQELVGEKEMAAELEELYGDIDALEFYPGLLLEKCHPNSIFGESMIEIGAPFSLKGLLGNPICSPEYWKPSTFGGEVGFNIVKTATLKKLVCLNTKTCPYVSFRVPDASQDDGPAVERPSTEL

| IC50 [1] | IC50 [2] | SMILES |
| --- | --- | --- |
| > 50 µM | > 50 µM | C[C@@H]1O[C@@H](O[C@H]2[C@H](O)[C@@H](O)[C@H](OC[C@H]3O[C@@H](OC(=O)[C@]45CCC(C)(C)C[C@H]4C4=CC[C@@H]6[C@@]7(C)CC[C@H](O[C@@H]8OC[C@H](O)[C@H](O)[C@H]8O[C@@H]8O[C@@H](C)[C@H](O)[C@@H](O[C@@H]9OC[C@@H](O[C@@H]%10O[C@H](CO)[C@@H](O[C@@H]%11O[C@H](CO)[C@@H](O)[C@H](O)[C@H]%11O)[C@H](O)[C@H]%10O)[C@@H](O)[C@H]9O)[C@H]8O)[C@@](C)(CO)[C@@H]7CC[C@@]6(C)[C@]4(C)CC5)[C@H](O)[C@@H](O)[C@@H]3O)O[C@@H]2CO)[C@H](O)[C@H](O)[C@H]1O |
| > 50 µM | > 50 µM | C[C@@H]1O[C@@H](O[C@H]2[C@H](O)[C@@H](O)[C@H](OC[C@H]3O[C@@H](OC(=O)[C@]45CCC(C)(C)C[C@H]4C4=CC[C@@H]6[C@@]7(C)CC[C@H](O[C@@H]8OC[C@H](O)[C@H](O)[C@H]8O)[C@@](C)(CO)[C@@H]7CC[C@@]6(C)[C@]4(C)CC5)[C@H](O)[C@@H](O)[C@@H]3O)O[C@@H]2CO)[C@H](O)[C@H](O)[C@H]1O [CAULOSIDE D] |
| > 50 µM | > 50 µM | C[C@@H]1O[C@@H](O[C@H]2[C@H](O)[C@@H](O)[C@H](OC[C@H]3O[C@@H](OC(=O)[C@]45CCC(C)(C)C[C@H]4C4=CC[C@@H]6[C@@]7(C)CC[C@H](O)C(C)(C)[C@@H]7CC[C@@]6(C)[C@]4(C)CC5)[C@H](O)[C@@H](O)[C@@H]3O)O[C@@H]2CO)[C@H](O)[C@H](O)[C@H]1O [CIRENSENOSIDE O] |
| > 50 µM | > 50 µM | C[C@@H]1O[C@@H](O[C@H]2[C@H](O)[C@@H](O)[C@H](OC[C@H]3O[C@@H](OC(=O)[C@]45CCC(C)(C)C[C@H]4C4=CC[C@@H]6[C@@]7(C)CC[C@H](O[C@@H]8OC[C@H](O)[C@H](O)[C@H]8O)C(C)(C)[C@@H]7CC[C@@]6(C)[C@]4(C)CC5)[C@H](O)[C@@H](O)[C@@H]3O)O[C@@H]2CO)[C@H](O)[C@H](O)[C@H]1O [CIWUJIANOSIDE C3] |
| 8 µM | 7.6 µM | COc1ccc(/C=C/C(=O)O[C@@H]2[C@@H](O)[C@H](O[C@H]3[C@H](O)[C@@H](O)[C@H](O[C@@H]4CO[C@@H](O[C@@H]5[C@@H](O)[C@H](C)O[C@@H](O[C@H]6[C@H](O[C@H]7CC[C@]8(C)[C@H]9CC=C%10[C@@H]%11CC(C)(C)CC[C@]%11(C(=O)O[C@@H]%11O[C@H](CO[C@@H]%12O[C@H](CO)[C@@H](O[C@@H]%13O[C@@H](C)[C@H](O)[C@@H](O)[C@H]%13O)[C@H](O)[C@H]%12O)[C@@H](O)[C@H](O)[C@H]%11O)CC[C@@]%10(C)[C@]9(C)CC[C@H]8C7(C)C)OC[C@H](O)[C@@H]6O)[C@@H]5O)[C@H](O)[C@@H]4O)O[C@@H]3CO)O[C@H](CO)[C@H]2O)cc1O [CLEMATERNOSIDE B] |
| 7.6 µM | 8.8 µM | COc1ccc(/C=C/C(=O)O[C@H]2[C@H](O[C@H]3[C@H](O)[C@@H](O)[C@H](O[C@@H]4CO[C@@H](O[C@@H]5[C@@H](O)[C@H](C)O[C@@H](O[C@H]6[C@H](O[C@H]7CC[C@]8(C)[C@H]9CC=C%10[C@@H]%11CC(C)(C)CC[C@]%11(C(=O)O[C@@H]%11O[C@H](CO[C@@H]%12O[C@H](CO)[C@@H](O[C@@H]%13O[C@@H](C)[C@H](O)[C@@H](O)[C@H]%13O)[C@H](O)[C@H]%12O)[C@@H](O)[C@H](O)[C@H]%11O)CC[C@@]%10(C)[C@]9(C)CC[C@H]8C7(C)C)OC[C@H](O)[C@@H]6O)[C@@H]5O)[C@H](O)[C@@H]4O)O[C@@H]3CO)O[C@H](CO)[C@@H](O)[C@@H]2O)cc1O [CLEMATERNOSIDE C] |
| 8.8 µM | 9 µM | COc1ccc(/C=C/C(=O)O[C@H]2[C@H](O[C@H]3[C@H](O)[C@@H](O)[C@H](O[C@@H]4CO[C@@H](O[C@@H]5[C@@H](O)[C@H](C)O[C@@H](O[C@H]6[C@H](O[C@H]7CC[C@@]8(C)[C@@H](CC[C@]9(C)[C@@H]8CC=C8[C@@H]%10CC(C)(C)CC[C@]%10(C(=O)O[C@@H]%10O[C@H](CO[C@@H]%11O[C@H](CO)[C@@H](O[C@@H]%12O[C@@H](C)[C@H](O)[C@@H](O)[C@H]%12O)[C@H](O)[C@H]%11O)[C@@H](O)[C@H](O)[C@H]%10O)CC[C@]89C)[C@]7(C)CO)OC[C@H](O)[C@@H]6O)[C@@H]5O)[C@H](O)[C@@H]4O)O[C@@H]3CO)O[C@H](CO)[C@@H](O)[C@@H]2O[C@@H]2O[C@H](CO[C@@H]3O[C@@H](C)[C@H](O)[C@@H](O)[C@H]3O)[C@@H](O)[C@H](O)[C@H]2O)cc1O [CLEMATERNOSIDE D] |
| 8.3 µM | 8.5 µM | COc1ccc(/C=C/C(=O)O[C@H]2[C@H](O[C@H]3[C@H](O)[C@@H](O)[C@H](O[C@@H]4CO[C@@H](O[C@@H]5[C@@H](O)[C@H](C)O[C@@H](O[C@H]6[C@H](O[C@H]7CC[C@]8(C)[C@H]9CC=C%10[C@@H]%11CC(C)(C)CC[C@]%11(C(=O)O[C@@H]%11O[C@H](CO[C@@H]%12O[C@H](CO)[C@@H](O[C@@H]%13O[C@@H](C)[C@H](O)[C@@H](O)[C@H]%13O)[C@H](O)[C@H]%12O)[C@@H](O)[C@H](O)[C@H]%11O)CC[C@@]%10(C)[C@]9(C)CC[C@H]8C7(C)C)OC[C@H](O)[C@@H]6O)[C@@H]5O)[C@H](O)[C@@H]4O)O[C@@H]3CO)O[C@H](CO)[C@@H](O)[C@@H]2O[C@@H]2O[C@H](CO[C@@H]3O[C@@H](C)[C@H](O)[C@@H](O)[C@H]3O)[C@@H](O)[C@H](O)[C@H]2O)cc1O [CLEMATERNOSIDE E] |
| 5.9 µM | 6.7 µM | COc1ccc(/C=C/C(=O)O[C@H]2[C@H](O[C@H]3[C@H](O)[C@@H](O)[C@H](O[C@@H]4CO[C@@H](O[C@@H]5[C@@H](O)[C@H](C)O[C@@H](O[C@H]6[C@H](O[C@H]7CC[C@]8(C)[C@H]9CC=C%10[C@@H]%11CC(C)(C)CC[C@]%11(C(=O)O[C@@H]%11O[C@H](CO[C@@H]%12O[C@H](CO)[C@@H](O[C@@H]%13O[C@@H](C)[C@H](O)[C@@H](O)[C@H]%13O)[C@H](O)[C@H]%12O)[C@@H](O)[C@H](O)[C@H]%11O)CC[C@@]%10(C)[C@]9(C)CC[C@H]8C7(C)C)OC[C@H](O)[C@@H]6O)[C@@H]5O)[C@H](O)[C@@H]4O)O[C@@H]3CO)O[C@H](CO)[C@@H](O)[C@@H]2O[C@@H]2O[C@H](CO[C@@H]3O[C@@H](C)[C@H](O)[C@@H](O)[C@H]3O[C@@H]3O[C@H](CO)[C@@H](O)[C@H](O)[C@H]3O)[C@@H](O)[C@H](O)[C@H]2O)cc1O [CLEMATERNOSIDE K] |
| > 50 µM | > 50 µM | C[C@@H]1O[C@@H](O[C@H]2[C@H](O)[C@@H](O)[C@H](OC[C@H]3O[C@@H](OC(=O)[C@]45CCC(C)(C)C[C@H]4C4=CC[C@@H]6[C@@]7(C)CC[C@H](O[C@@H]8OC[C@H](O)[C@H](O)[C@H]8O[C@@H]8O[C@@H](C)[C@H](O)[C@@H](O[C@@H]9OC[C@@H](O[C@@H]%10O[C@H](CO)[C@@H](O)[C@H](O)[C@H]%10O)[C@@H](O)[C@H]9O)[C@H]8O)[C@@](C)(CO)[C@@H]7CC[C@@]6(C)[C@]4(C)CC5)[C@H](O)[C@@H](O)[C@@H]3O)O[C@@H]2CO)[C@H](O)[C@H](O)[C@H]1O [CLEMATICHINENOSIDE B] |
| > 50 µM | > 50 µM | C[C@@H]1O[C@@H](O[C@H]2[C@H](O)[C@@H](O)[C@H](OC[C@H]3O[C@@H](OC(=O)[C@]45CCC(C)(C)C[C@H]4C4=CC[C@@H]6[C@@]7(C)CC[C@H](O[C@@H]8OC[C@H](O)[C@H](O)[C@H]8O[C@@H]8O[C@@H](C)[C@H](O)[C@@H](O[C@@H]9OC[C@@H](O[C@@H]%10O[C@H](CO)[C@@H](O)[C@H](O)[C@H]%10O)[C@@H](O)[C@H]9O)[C@H]8O)C(C)(C)[C@@H]7CC[C@@]6(C)[C@]4(C)CC5)[C@H](O)[C@@H](O)[C@@H]3O)O[C@@H]2CO)[C@H](O)[C@H](O)[C@H]1O [CLEMATICHINENOSIDE C] |
| 7.8 µM | 6.7 µM | COc1ccc(/C=C/C(=O)O[C@H]2[C@H](O[C@H]3[C@H](O)[C@@H](O)[C@H](O[C@@H]4CO[C@@H](O[C@@H]5[C@@H](O)[C@H](C)O[C@@H](O[C@H]6[C@H](O[C@H]7CC[C@@]8(C)[C@@H](CC[C@]9(C)[C@@H]8CC=C8[C@@H]%10CC(C)(C)CC[C@]%10(C(=O)O[C@@H]%10O[C@H](CO[C@@H]%11O[C@H](CO)[C@@H](O[C@@H]%12O[C@@H](C)[C@H](O)[C@@H](O)[C@H]%12O)[C@H](O)[C@H]%11O)[C@@H](O)[C@H](O)[C@H]%10O)CC[C@]89C)[C@]7(C)CO)OC[C@@H](O)[C@@H]6O)[C@@H]5O)[C@H](O)[C@@H]4O)O[C@@H]3CO)O[C@H](CO)[C@@H](O)[C@@H]2O[C@@H]2O[C@H](CO[C@@H]3O[C@@H](C)[C@H](O)[C@@H](O)[C@H]3O[C@@H]3O[C@H](CO)[C@@H](O)[C@H](O)[C@H]3O)[C@@H](O)[C@H](O)[C@H]2O)cc1O [CLEMATOCHINENOSIDE A] |
